From ChEMBL document CHEMBL4385643, “Design of a brain-penetrant CDK4/6 inhibitor for glioblastoma” (Bioorg Med Chem Lett, 2019)

Key:
[1] = target: Serine/threonine-protein kinase pim-1 (Homo sapiens) (UniProt P11309); experiment: Inhibition of recombinant full length human His-tagged PIM1 expressed in baculovirus expression system at 0.1 uM using serine/threonine-7 peptide as substrate incubated for 60 mins by Z'-LYTE assay relative to control
[2] = target: Serine/threonine-protein kinase TBK1 (Homo sapiens) (UniProt Q9UHD2); experiment: Inhibition of recombinant full length human GST-tagged TBK1 expressed in insect expression system at 0.1 uM using serine/threonine-5 peptide as substrate incubated for 60 mins by Z'-LYTE assay relative to control
Sequence of Serine/threonine-protein kinase TBK1 (Homo sapiens) (Q9UHD2 whole entry): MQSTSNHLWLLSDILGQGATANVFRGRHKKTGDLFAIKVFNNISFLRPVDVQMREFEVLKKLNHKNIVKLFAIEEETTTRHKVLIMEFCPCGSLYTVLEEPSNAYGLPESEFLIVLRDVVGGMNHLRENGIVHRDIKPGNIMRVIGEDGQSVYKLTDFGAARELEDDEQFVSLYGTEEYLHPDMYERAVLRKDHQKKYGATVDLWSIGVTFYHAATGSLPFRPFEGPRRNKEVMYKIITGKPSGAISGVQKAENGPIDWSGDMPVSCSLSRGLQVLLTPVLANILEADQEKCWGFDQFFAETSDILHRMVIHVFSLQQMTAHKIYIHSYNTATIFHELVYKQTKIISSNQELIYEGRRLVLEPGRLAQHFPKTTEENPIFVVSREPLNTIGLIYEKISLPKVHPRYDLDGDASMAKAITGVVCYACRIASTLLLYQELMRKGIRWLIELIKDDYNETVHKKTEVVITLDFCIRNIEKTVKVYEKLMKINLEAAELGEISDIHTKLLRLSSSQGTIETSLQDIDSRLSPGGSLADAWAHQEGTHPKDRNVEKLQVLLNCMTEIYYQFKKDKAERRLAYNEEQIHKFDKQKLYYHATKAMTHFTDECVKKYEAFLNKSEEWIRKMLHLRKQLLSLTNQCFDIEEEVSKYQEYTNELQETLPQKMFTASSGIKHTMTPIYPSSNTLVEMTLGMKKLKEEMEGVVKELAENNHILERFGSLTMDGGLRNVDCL

[3] = target: Dual specificity protein kinase CLK3 (Homo sapiens) (UniProt P49761); experiment: Inhibition of recombinant full length human GST-tagged CLK3 expressed in Baculovirus expression system at 0.1 uM using serine/threonine-18 peptide as substrate incubated for 60 mins by Z'-LYTE assay relative to control
[4] = target: Ribosomal protein S6 kinase alpha-3 (Homo sapiens) (UniProt P51812); experiment: Inhibition of recombinant full length human His-tagged RSK2 expressed in baculovirus expression system at 0.1 uM using serine/threonine-6 peptide as substrate incubated for 60 mins by Z'-LYTE assay relative to control
[5] = target: Casein kinase II subunit alpha (Homo sapiens) (UniProt P68400); experiment: Inhibition of recombinant full length human His-tagged CK2 alpha 1 expressed in baculovirus expression system at 0.1 uM using serine/threonine-11 peptide as substrate incubated for 60 mins by Z'-LYTE assay relative to control
Sequence of Casein kinase II subunit alpha (Homo sapiens) (P68400 whole entry, looked up, the tested form may be a part): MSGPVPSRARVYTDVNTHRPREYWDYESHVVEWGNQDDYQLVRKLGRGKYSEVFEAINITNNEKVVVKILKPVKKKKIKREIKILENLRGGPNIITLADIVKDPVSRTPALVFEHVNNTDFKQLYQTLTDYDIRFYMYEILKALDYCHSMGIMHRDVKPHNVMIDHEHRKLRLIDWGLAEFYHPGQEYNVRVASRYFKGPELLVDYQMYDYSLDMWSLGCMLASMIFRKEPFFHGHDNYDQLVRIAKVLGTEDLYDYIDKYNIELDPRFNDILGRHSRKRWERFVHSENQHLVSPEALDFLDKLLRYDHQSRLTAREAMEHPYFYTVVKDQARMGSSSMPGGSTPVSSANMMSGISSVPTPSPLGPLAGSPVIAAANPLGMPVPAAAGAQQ

[6] = target: Serine/threonine-protein kinase PAK 4 (Homo sapiens) (UniProt O96013); experiment: Inhibition of recombinant human GST-tagged PAK4 catalytic domain (295 to 591 residues) expressed in baculovirus expression system at 0.1 uM using serine/threonine-20 peptide as substrate incubated for 60 mins by Z'-LYTE assay relative to control
[7] = target: Insulin receptor-related protein (Homo sapiens) (UniProt P14616); experiment: Inhibition of recombinant human GST-tagged IRR (944 to 1297 residues) expressed in baculovirus expression system at 0.1 uM using tyrosine-4 peptide as substrate incubated for 60 mins by Z'-LYTE assay relative to control
[8] = target: Protein kinase C epsilon type (Homo sapiens) (UniProt Q02156); experiment: Inhibition of recombinant full length human GST-tagged PKCepsilon expressed in insect expression system at 0.1 uM using serine/threonine-7 peptide as substrate incubated for 60 mins by Z'-LYTE assay relative to control
Sequence of Protein kinase C epsilon type (Homo sapiens) (Q02156 whole entry, the tested form may be a part): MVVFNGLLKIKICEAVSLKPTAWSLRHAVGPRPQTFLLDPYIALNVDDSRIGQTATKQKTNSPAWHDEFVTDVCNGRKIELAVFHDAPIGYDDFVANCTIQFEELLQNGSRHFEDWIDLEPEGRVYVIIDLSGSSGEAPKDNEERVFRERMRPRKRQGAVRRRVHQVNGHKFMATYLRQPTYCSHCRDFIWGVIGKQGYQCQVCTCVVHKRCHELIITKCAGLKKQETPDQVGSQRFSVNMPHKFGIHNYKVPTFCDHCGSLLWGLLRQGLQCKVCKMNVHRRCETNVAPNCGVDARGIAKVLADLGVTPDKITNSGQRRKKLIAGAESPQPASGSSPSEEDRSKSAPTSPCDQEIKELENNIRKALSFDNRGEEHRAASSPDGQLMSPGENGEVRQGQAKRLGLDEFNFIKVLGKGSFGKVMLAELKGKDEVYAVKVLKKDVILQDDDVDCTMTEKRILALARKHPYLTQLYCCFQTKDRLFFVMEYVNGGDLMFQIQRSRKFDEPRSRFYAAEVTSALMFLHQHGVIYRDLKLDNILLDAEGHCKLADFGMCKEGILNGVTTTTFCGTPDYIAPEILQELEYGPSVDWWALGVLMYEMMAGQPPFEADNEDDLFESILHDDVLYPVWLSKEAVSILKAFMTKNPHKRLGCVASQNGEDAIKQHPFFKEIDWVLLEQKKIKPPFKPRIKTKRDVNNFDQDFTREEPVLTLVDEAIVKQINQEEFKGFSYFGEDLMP

[9] = target: Ephrin type-B receptor 3 (Homo sapiens) (UniProt P54753); experiment: Inhibition of recombinant human GST-tagged EPHB3 catalytic domain (623 to 907 residues) expressed in baculovirus expression system at 0.1 uM using tyrosine-2 peptide as substrate incubated for 60 mins by Z'-LYTE assay relative to control
[10] = target: Cyclin-C/Cyclin-dependent kinase 19 (Homo sapiens) (UniProt Q9BWU1+P24863); experiment: Inhibition of tracer 236 binding to recombinant human GST/His-tagged CDK11/Cyclin C catalytic domain (CDK11: 1 to 502, Cyclin C: 1 to 283) expressed in insect cells expression system at 0.1 uM measured after 60 mins by Lanthascreen assay relative to control
[11] = target: Muscle, skeletal receptor tyrosine-protein kinase (Homo sapiens) (UniProt O15146); experiment: Inhibition of recombinant human GST-tagged MUSK (519 to 869 residues) expressed in baculovirus expression system at 0.1 uM using tyrosine-4 peptide as substrate incubated for 60 mins by Z'-LYTE assay relative to control
[12] = target: Ribosomal protein S6 kinase alpha-2 (Homo sapiens) (UniProt Q15349); experiment: Inhibition of recombinant full length human GST-tagged RSK3 expressed in insect expression system at 0.1 uM using serine/threonine-6 peptide as substrate incubated for 60 mins by Z'-LYTE assay relative to control
[13] = target: Mitogen-activated protein kinase 9 (Homo sapiens) (UniProt P45984); experiment: Inhibition of recombinant full length human His-tagged JNK2 expressed in baculovirus expression system at 0.1 uM using serine/threonine-4 peptide as substrate incubated for 60 mins by Z'-LYTE assay relative to control
[14] = target: Tyrosine-protein kinase Mer (Homo sapiens) (UniProt Q12866); experiment: Inhibition of recombinant human GST-tagged MER (578 to 872 residues) expressed in baculovirus expression system at 0.1 uM using tyrosine-2 peptide as substrate incubated for 60 mins by Z'-LYTE assay relative to control
Sequence of Tyrosine-protein kinase Mer (Homo sapiens) (Q12866 whole entry, the tested form may be a part): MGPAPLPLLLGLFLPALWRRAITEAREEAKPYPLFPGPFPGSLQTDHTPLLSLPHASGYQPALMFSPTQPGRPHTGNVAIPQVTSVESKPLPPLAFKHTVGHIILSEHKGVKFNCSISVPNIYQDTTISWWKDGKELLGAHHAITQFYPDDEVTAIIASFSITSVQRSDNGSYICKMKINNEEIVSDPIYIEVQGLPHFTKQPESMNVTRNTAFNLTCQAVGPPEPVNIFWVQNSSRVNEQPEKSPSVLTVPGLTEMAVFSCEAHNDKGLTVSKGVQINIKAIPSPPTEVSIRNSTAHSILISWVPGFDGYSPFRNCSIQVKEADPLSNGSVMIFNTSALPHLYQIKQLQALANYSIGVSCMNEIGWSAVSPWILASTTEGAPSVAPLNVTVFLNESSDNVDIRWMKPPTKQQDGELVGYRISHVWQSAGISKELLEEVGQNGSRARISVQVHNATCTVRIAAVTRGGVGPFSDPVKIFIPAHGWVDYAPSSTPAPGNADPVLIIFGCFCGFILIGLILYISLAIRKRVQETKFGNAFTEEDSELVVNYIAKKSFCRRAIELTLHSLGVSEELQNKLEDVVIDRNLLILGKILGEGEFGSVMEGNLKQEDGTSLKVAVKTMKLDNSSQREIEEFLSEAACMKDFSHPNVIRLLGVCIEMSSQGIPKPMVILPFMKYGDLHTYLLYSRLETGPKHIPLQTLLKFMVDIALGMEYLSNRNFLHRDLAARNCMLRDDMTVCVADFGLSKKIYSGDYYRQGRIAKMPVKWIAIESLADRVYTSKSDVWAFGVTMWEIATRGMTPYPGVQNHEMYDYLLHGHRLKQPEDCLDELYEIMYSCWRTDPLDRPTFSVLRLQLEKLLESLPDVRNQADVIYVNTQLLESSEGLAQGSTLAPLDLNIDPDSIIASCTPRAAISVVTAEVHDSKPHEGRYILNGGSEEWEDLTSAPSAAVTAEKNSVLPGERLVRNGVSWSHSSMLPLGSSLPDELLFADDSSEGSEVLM

[15] = target: Beta-adrenergic receptor kinase 1 (Homo sapiens) (UniProt P25098); experiment: Inhibition of recombinant full length human His-tagged GRK2 expressed in baculovirus expression system at 0.1 uM using serine/threonine-16 peptide as substrate incubated for 60 mins by Z'-LYTE assay relative to control
Sequence of Beta-adrenergic receptor kinase 1 (Homo sapiens) (P25098 whole entry, the tested form may be a part): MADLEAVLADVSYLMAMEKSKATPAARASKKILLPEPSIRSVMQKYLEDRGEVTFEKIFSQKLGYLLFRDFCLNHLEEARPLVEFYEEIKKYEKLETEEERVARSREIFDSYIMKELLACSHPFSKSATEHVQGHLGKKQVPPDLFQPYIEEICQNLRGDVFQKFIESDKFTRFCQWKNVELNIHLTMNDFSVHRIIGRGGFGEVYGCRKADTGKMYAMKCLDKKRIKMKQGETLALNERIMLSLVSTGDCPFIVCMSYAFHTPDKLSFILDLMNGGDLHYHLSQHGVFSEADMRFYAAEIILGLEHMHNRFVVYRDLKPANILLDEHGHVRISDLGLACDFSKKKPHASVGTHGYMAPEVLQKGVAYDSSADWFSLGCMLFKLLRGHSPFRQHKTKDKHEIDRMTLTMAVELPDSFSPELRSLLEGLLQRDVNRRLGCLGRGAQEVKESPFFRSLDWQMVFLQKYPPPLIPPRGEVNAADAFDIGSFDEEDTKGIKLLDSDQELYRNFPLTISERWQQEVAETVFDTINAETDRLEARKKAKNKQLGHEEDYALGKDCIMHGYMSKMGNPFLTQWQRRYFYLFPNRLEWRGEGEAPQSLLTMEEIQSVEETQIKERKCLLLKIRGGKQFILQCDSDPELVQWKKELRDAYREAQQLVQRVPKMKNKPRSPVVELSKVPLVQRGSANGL

[16] = target: Ephrin type-A receptor 1 (Homo sapiens) (UniProt P21709); experiment: Inhibition of recombinant human GST-tagged EPHA1 (568 to 976 residues) expressed in baculovirus expression system at 0.1 uM using tyrosine-2 peptide as substrate incubated for 60 mins by Z'-LYTE assay relative to control
[17] = target: RAC-alpha serine/threonine-protein kinase (Homo sapiens) (UniProt P31749); experiment: Inhibition of recombinant full length human His-tagged AKT1 expressed in baculovirus expression system at 0.1 uM using serine/threonine-06 peptide as substrate incubated for 60 mins by Z'-LYTE assay relative to control
Sequence of RAC-alpha serine/threonine-protein kinase (Homo sapiens) (P31749 whole entry, the tested form may be a part): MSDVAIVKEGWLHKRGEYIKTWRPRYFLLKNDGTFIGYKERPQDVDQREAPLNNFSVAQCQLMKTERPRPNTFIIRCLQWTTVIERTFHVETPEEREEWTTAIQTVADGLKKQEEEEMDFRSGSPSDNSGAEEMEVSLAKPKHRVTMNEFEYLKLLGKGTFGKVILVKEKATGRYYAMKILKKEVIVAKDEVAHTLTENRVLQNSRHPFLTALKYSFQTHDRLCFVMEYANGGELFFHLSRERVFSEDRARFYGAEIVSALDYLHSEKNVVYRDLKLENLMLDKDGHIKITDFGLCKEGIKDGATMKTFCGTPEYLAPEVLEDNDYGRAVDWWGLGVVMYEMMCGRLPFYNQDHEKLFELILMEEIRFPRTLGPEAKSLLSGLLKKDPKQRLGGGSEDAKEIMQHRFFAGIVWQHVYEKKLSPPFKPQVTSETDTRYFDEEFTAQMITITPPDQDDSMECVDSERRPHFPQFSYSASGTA

[18] = target: Tyrosine-protein kinase TXK (Homo sapiens) (UniProt P42681); experiment: Inhibition of recombinant human GST-tagged TXK catalytic domain (260 to 527 residues) expressed in baculovirus expression system at 0.1 uM using tyrosine-6 peptide as substrate incubated for 60 mins by Z'-LYTE assay relative to control
Sequence of Tyrosine-protein kinase TXK (Homo sapiens) (P42681 whole entry, the tested form may be a part): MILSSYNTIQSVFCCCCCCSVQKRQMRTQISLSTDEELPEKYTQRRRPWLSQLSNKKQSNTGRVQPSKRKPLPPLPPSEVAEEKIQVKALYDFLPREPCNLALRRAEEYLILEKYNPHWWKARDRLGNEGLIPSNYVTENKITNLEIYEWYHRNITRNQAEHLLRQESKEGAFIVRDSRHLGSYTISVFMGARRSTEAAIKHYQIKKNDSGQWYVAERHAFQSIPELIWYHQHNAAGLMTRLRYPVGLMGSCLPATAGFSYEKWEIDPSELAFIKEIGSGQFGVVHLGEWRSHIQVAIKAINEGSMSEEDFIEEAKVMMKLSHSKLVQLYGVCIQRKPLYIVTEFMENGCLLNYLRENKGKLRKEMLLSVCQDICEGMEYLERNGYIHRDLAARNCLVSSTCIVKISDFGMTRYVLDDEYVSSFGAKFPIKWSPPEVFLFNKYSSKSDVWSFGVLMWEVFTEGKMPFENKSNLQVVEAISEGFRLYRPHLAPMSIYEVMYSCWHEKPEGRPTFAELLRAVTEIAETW

[19] = target: Mitogen-activated protein kinase 14 (Homo sapiens) (UniProt Q16539); experiment: Inhibition of recombinant full length human GST-tagged p38alpha expressed in Escherichia coli expression system at 0.1 uM using serine/threonine-15 peptide as substrate incubated for 60 mins by Z'-LYTE assay relative to control
[20] = target: Serine/threonine-protein kinase D1 (Homo sapiens) (UniProt Q15139); experiment: Inhibition of recombinant full length human GST-tagged PKD1 expressed in baculovirus expression system at 0.1 uM using serine/threonine-17 peptide as substrate incubated for 60 mins by Z'-LYTE assay relative to control
[21] = target: TGF-beta receptor type-1 (Homo sapiens) (UniProt P36897); experiment: Inhibition of tracer 178 binding to recombinant human GST-tagged TGFBR1 catalytic domain (200 to 503 residues) expressed in baculovirus expression system at 0.1 uM measured after 60 mins by Lanthascreen assay
[22] = target: CDK7/Cyclin H/MNAT1 (Homo sapiens) (UniProt P51946+P50613+P51948); experiment: Inhibition of recombinant full length human His-tagged CDK7/CyclinH/MAT1 expressed in baculovirus expression system at 0.1 uM using CDK7/9tide peptide as substrate incubated for 60 mins by Adapta assay relative to control

Sequence of Serine/threonine-protein kinase pim-1 (Homo sapiens) (P11309 whole entry, looked up): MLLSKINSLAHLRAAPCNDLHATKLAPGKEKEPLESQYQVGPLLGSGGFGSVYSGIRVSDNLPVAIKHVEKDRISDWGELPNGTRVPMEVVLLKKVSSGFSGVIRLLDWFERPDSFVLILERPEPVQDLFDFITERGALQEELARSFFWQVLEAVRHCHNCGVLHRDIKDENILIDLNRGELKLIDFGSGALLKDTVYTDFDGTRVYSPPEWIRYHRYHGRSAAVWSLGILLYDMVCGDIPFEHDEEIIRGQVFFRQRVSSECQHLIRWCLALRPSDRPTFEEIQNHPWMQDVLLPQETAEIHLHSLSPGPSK

Compound | inhibition [1] [%] | inhibition [2] [%] | inhibition [3] [%] | inhibition [4] [%] | inhibition [5] [%] | inhibition [6] [%] | inhibition [7] [%] | inhibition [8] [%] | inhibition [9] [%] | inhibition [10] [%] | inhibition [11] [%] | inhibition [12] [%] | inhibition [13] [%] | inhibition [14] [%] | inhibition [15] [%] | inhibition [16] [%] | inhibition [17] [%] | inhibition [18] [%] | inhibition [19] [%] | inhibition [20] [%] | also measured
CCN1CCN(Cc2ccc(Nc3ncc(F)c(-c4cc(F)c5nc(C)n(C(C)C)c5c4)n3)nc2)CC1 [ABEMACICLIB] | 95 | 43 | 6.5 | 10.5 | 31.5 | 1 | 6 | 22.5 | -0.5 | 19 | 24.8 | 19.5 | 25.5 | 20.5 | 0 | 8 | 6.5 | 6.5 | -1 | 62.5 | inhibition [21]: 10.9%; inhibition [22]: 19.1%
CCN1CC2(C1)CN(c1ccc(Nc3ncc(F)c(-c4cnn5c4[C@H](C)CCCC5)n3)nc1)C2 | 11.5 | 8 | 4 | 53 | 0.5 | 13.5 | 1 | 14.5 | 1 | 81 | 10.5 | 58.5 | 61.5 | 4 | 0.5 | 9.5 | 2 | -1 | 3 | 98.5 | inhibition [21]: 16%; inhibition [22]: 10.5%
